{"source": "paper PMC10541190", "about": "(The Journal of Clinical Investigation, 2023)", "key": {"DENV2": {"system": "DENV2", "format": "cell-based"}, "in vitro [1]": {"experiment": "in vitro", "conditions": "human, Huh7 cell viability (%)"}, "[2]": {"system": "SARS-CoV-2 (USA-WA1/2020)", "experiment": "microbe, parasite or virus in culture", "format": "cell-based", "conditions": "for EC50: Severe acute respiratory syndrome coronavirus 2, Vero, 24 h, read-out: SARS-CoV-2 EC50"}, "VEEV (TC-83) [3]": {"system": "VEEV (TC-83)", "format": "cell-based"}, "in vitro [4]": {"experiment": "in vitro", "conditions": "African green monkey"}, "[5]": {"system": "SARS-CoV-2 (Belgium-GHB-03021)", "format": "cell-based"}, "[6]": {"system": "SARS-CoV-2 (USA-WA1/2020)", "experiment": "microbe, parasite or virus in culture", "format": "cell-based", "conditions": "Severe acute respiratory syndrome coronavirus 2, Calu-3, read-out: EC50, SARS-CoV-2 infection"}, "ErbB4 [7]": {"molecular_target": "T1, ErbB4 (Homo sapiens, UniProt Q15303)", "T1 sequence (Q15303 26-1308)": "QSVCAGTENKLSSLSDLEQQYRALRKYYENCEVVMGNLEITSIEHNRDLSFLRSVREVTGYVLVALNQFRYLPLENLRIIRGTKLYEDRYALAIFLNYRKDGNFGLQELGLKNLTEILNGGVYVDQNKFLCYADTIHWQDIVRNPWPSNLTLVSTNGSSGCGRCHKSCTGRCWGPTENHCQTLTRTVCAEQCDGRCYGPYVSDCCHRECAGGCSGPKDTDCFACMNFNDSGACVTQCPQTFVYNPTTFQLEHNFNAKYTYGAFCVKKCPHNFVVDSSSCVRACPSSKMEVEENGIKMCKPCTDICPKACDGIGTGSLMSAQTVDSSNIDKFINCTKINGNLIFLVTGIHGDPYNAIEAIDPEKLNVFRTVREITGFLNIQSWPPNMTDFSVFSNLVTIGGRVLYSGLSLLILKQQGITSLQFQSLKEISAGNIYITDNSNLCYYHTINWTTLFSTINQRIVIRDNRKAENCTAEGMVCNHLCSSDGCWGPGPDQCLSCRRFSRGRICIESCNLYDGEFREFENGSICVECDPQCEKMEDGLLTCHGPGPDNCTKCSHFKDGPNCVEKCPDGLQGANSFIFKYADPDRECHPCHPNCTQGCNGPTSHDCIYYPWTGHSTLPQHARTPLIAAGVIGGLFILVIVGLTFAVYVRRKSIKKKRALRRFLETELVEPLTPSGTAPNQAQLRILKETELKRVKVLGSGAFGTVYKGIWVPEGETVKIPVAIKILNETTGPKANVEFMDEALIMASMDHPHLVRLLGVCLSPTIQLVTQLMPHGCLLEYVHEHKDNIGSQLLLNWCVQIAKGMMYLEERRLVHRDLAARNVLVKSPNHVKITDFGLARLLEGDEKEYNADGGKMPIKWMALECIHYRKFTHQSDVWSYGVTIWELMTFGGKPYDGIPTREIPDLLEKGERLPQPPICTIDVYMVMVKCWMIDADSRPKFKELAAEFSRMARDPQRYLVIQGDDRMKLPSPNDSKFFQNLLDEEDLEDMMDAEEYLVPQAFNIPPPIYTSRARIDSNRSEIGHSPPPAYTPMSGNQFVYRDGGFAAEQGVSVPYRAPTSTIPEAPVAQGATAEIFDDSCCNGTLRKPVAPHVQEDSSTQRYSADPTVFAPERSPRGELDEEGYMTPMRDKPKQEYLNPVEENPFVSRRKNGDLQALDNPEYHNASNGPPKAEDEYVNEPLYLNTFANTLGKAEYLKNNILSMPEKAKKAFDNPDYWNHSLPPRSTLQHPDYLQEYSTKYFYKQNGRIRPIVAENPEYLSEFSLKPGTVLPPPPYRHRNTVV", "experiment": "biochemical", "conditions": "read-out: ErbB4 activity (%)"}, "VEEV (TC-83) [8]": {"system": "VEEV (TC-83)", "experiment": "microbe, parasite or virus in culture", "format": "cell-based", "conditions": "Venezuelan equine encephalitis virus, U-87 MG, read-out: EC50, VEEV (TC-83) infection"}, "in vitro [9]": {"experiment": "in vitro", "conditions": "human"}, "ErbB4 [10]": {"molecular_target": "T1, ErbB4", "conditions": "read-out: KD of binding or IC50 (nM), ErbB4; cited from earlier work"}, "ErbB1 (EGFR)": {"system": "ErbB1 (EGFR)", "conditions": "read-out: KD of binding or IC50 (nM), ErbB1; cited from earlier work"}, "in vitro [11]": {"experiment": "in vitro", "conditions": "human", "remark": "listed apart in the source"}, "Huh7 cells": {"system": "Huh7 cells", "conditions": "human"}, "U-87 MG cells": {"system": "U-87 MG cells", "conditions": "human, 5 µM"}}, "note": "Values joined by “and” are separate entries in the source; they are usually repeats but may differ in a detail not shown here. Identical values can stand only once. Like-named read-outs stand apart in the source and are kept apart here."}
{"smiles": "CC[C@@]1([C@@H]2O[C@@H]([C@H]3O[C@@](O)(CO)[C@H](C)C[C@@H]3C)C[C@@H]2C)CC[C@H]([C@]2(C)CC[C@]3(C[C@H](O)[C@@H](C)[C@@H]([C@@H](C)[C@@H](OC)[C@H](C)C(=O)O)O3)O2)O1", "note": "[Monensin]", "values": [{"measurement": "replication of DENV2", "setting": "DENV2", "value": "dose-dependently inhibited replication"}, {"measurement": "viability at 0.37 µM", "setting": "in vitro [1]", "value": 70.5, "unit": "%"}, {"measurement": "viability at 3.33 µM", "setting": "in vitro [1]", "value": 32.2, "unit": "%"}, {"measurement": "viability at 10 µM", "setting": "in vitro [1]", "value": 22.1, "unit": "%"}, {"measurement": "viability at […]", "setting": "in vitro [1]", "value": "47.9% and 83.7%"}, {"measurement": "EC50", "setting": "[2]", "value": 1200, "unit": "nM"}, {"measurement": "replication of TC-83", "setting": "VEEV (TC-83) [3]", "value": "dose-dependently inhibited replication"}, {"measurement": "CC50", "setting": "in vitro [4]", "value": "> 20000", "unit": "nM"}]}
{"smiles": "CCC(CC)COC(=O)[C@H](C)N[P@](=O)(OC[C@H]1O[C@@](C#N)(c2ccc3c(N)ncnn23)[C@H](O)[C@@H]1O)Oc1ccccc1", "note": "[Remdesivir]", "values": [{"measurement": "rescue of Vero-eGFP cells from SARS-CoV-2-induced lethality, dose response", "setting": "[5]", "value": "dose-dependent anti-SARS-CoV-2 activity"}]}
{"smiles": "CC(C)(C)NCC(O)c1ccc(O)c(CO)c1", "note": "(stereo not shown) [Salbutamol]", "values": [{"measurement": "replication of DENV2", "setting": "DENV2", "value": "minimal to no activity"}, {"measurement": "activity against SARS-CoV-2", "setting": "[2]", "value": "minimal to no activity"}, {"measurement": "EC50", "setting": "[2]", "value": "> 20000", "unit": "nM"}, {"measurement": "replication of TC-83", "setting": "VEEV (TC-83) [3]", "value": "minimal to no activity"}, {"measurement": "CC50", "setting": "in vitro [4]", "value": "> 20000", "unit": "nM"}]}
{"smiles": "CNC(=O)CN1CCC(Oc2cc3c(Nc4cccc(Cl)c4F)ncnc3cc2OC)CC1", "note": "[Sapitinib]", "values": [{"measurement": "EC50", "setting": "[6]", "value": 1800, "unit": "nM"}, {"measurement": "activity at 0.00305 µM", "setting": "ErbB4 [7]", "value": 37.7, "unit": "%"}, {"measurement": "activity at 0.0274 µM", "setting": "ErbB4 [7]", "value": 10.2, "unit": "%"}, {"measurement": "activity at 0.08 µM", "setting": "ErbB4 [7]", "value": 5.52, "unit": "%"}, {"measurement": "activity at 0.25 µM", "setting": "ErbB4 [7]", "value": 2.84, "unit": "%"}, {"measurement": "activity at 0.74 µM", "setting": "ErbB4 [7]", "value": 1.25, "unit": "%"}, {"measurement": "activity at 2.22 µM", "setting": "ErbB4 [7]", "value": 2.36, "unit": "%"}, {"measurement": "activity at 6.67 µM", "setting": "ErbB4 [7]", "value": 1.4, "unit": "%"}, {"measurement": "activity at 20 µM", "setting": "ErbB4 [7]", "value": 1.27, "unit": "%"}, {"measurement": "activity at 60 µM", "setting": "ErbB4 [7]", "value": 0, "unit": "%"}, {"measurement": "activity at […]", "setting": "ErbB4 [7]", "value": "18.7% and 54.8%"}, {"measurement": "EC50", "setting": "VEEV (TC-83) [8]", "value": 2600, "unit": "nM"}, {"measurement": "CC50", "setting": "in vitro [9]", "value": "> 20000", "unit": "nM"}, {"measurement": "viability", "setting": "in vitro [9]; Calu-3 viability (%)", "value": 82.2, "unit": "%"}, {"measurement": "IC50", "setting": "ErbB4 [10]", "value": 1.4, "unit": "nM"}, {"measurement": "IC50", "setting": "ErbB1 (EGFR)", "value": 12, "unit": "nM"}, {"measurement": "CC50", "setting": "in vitro [11]", "value": "> 20000", "unit": "nM"}]}
{"smiles": "CCN(CC)CCNC(=O)c1c(C)[nH]c(/C=C2\\C(=O)Nc3ccc(F)cc32)c1C", "note": "[Sunitinib]", "values": [{"measurement": "Huh7 cell viability (%)", "setting": "Huh7 cells; 1.25 µM", "value": 90.21, "unit": "%"}, {"measurement": "Huh7 cell viability (%)", "setting": "Huh7 cells; 2.5 µM", "value": 75.37, "unit": "%"}, {"measurement": "viability at 0.16 µM", "setting": "in vitro [1]", "value": 102, "unit": "%"}, {"measurement": "viability at 0.63 µM", "setting": "in vitro [1]", "value": 99.8, "unit": "%"}, {"measurement": "viability at 1.25 µM", "setting": "in vitro [1]", "value": 89.5, "unit": "%"}, {"measurement": "viability at 10 µM", "setting": "in vitro [1]", "value": 59, "unit": "%"}, {"measurement": "U-87 MG cell viability (%)", "setting": "U-87 MG cells", "value": 106.81, "unit": "%"}, {"measurement": "SARS-CoV-2 infection (%)", "setting": "[2]; 0.5 μM", "value": "94.03% and 125.37% and 116.42%"}, {"measurement": "SARS-CoV-2 infection (%)", "setting": "[2]; 1 μM", "value": "116.42% and 85.07% and 94.03%"}, {"measurement": "SARS-CoV-2 infection (%)", "setting": "[2]; 5 μM", "value": "16.57% and 14.33% and 15.67%"}, {"measurement": "EC50", "setting": "[2]", "value": 2400, "unit": "nM"}, {"measurement": "viability at 0.25 µM", "setting": "in vitro [11]; U-87 MG cell viability (%)", "value": 118, "unit": "%"}, {"measurement": "viability at 0.74 µM", "setting": "in vitro [11]; U-87 MG cell viability (%)", "value": 110, "unit": "%"}, {"measurement": "viability at 2.5 µM", "setting": "in vitro [11]; U-87 MG cell viability (%)", "value": 106, "unit": "%"}, {"measurement": "viability at 20 µM", "setting": "in vitro [11]; U-87 MG cell viability (%)", "value": 44.6, "unit": "%"}, {"measurement": "CC50", "setting": "in vitro [4]", "value": 12200, "unit": "nM"}, {"measurement": "viability at 2.5 µM", "setting": "in vitro [4]; Cell viability (%), 2.5 μM", "value": 68.8, "unit": "%"}, {"measurement": "viability at 5 µM", "setting": "in vitro [4]; Cell viability (%), 5 μM", "value": 66.1, "unit": "%"}]}
{"smiles": "COc1ccc2cc1Oc1ccc(cc1)C[C@H]1c3cc(c(OC)cc3CCN1C)Oc1c(OC)c(OC)cc3c1[C@H](C2)N(C)CC3", "note": "[Tetrandrine, Berbaman, 6,6',7, 12-tetramethoxy-2,2'-dimethyl-, (1β)-]", "values": [{"measurement": "Fluorescence (%area)", "setting": "[5]", "value": 93.6, "unit": "%area"}, {"measurement": "viability at 3.33 µM", "setting": "in vitro [1]", "value": 93.9, "unit": "%"}, {"measurement": "viability at 10 µM", "setting": "in vitro [1]", "value": 44, "unit": "%"}, {"measurement": "viability at […]", "setting": "in vitro [1]", "value": "96.8% and 97%"}, {"measurement": "EC50", "setting": "[2]", "value": 1400, "unit": "nM"}, {"measurement": "CC50", "setting": "in vitro [4]", "value": "> 20000", "unit": "nM"}]}
{"smiles": "CC(C)(C)c1cc(C=C(C#N)C#N)cc(C(C)(C)C)c1O", "note": "[Tyrphostin A9]", "values": [{"measurement": "viability at 0.37 µM", "setting": "in vitro [1]", "value": 101, "unit": "%"}, {"measurement": "viability at 3.33 µM", "setting": "in vitro [1]", "value": 89.2, "unit": "%"}, {"measurement": "viability at 10 µM", "setting": "in vitro [1]", "value": 88, "unit": "%"}, {"measurement": "viability at […]", "setting": "in vitro [1]", "value": "90.8% and 98.7%"}, {"measurement": "EC50", "setting": "[2]", "value": 16500, "unit": "nM"}, {"measurement": "viability at 0.25 µM", "setting": "in vitro [11]; U-87 MG cell viability (%)", "value": 96.7, "unit": "%"}, {"measurement": "viability at 0.74 µM", "setting": "in vitro [11]; U-87 MG cell viability (%)", "value": 85, "unit": "%"}, {"measurement": "viability at 2.22 µM", "setting": "in vitro [11]; U-87 MG cell viability (%)", "value": 85.2, "unit": "%"}, {"measurement": "viability at 6.67 µM", "setting": "in vitro [11]; U-87 MG cell viability (%)", "value": 78.3, "unit": "%"}, {"measurement": "viability at 20 µM", "setting": "in vitro [11]; U-87 MG cell viability (%)", "value": 70.1, "unit": "%"}, {"measurement": "anti-TC-83 and DENV2 activity compared with anti-SARS-CoV-2 activity", "setting": "VEEV (TC-83) [3]", "value": "more potent"}, {"measurement": "CC50", "setting": "in vitro [4]", "value": "> 20000", "unit": "nM"}]}
{"smiles": "CC(C)(C)c1cc(/C=C(\\C#N)C(N)=S)cc(C(C)(C)C)c1O", "note": "[Tyrphostin AG 879]", "values": [{"measurement": "replication of DENV2", "setting": "DENV2", "value": "dose-dependently inhibited replication"}, {"measurement": "viability at 0.37 µM", "setting": "in vitro [1]", "value": 100, "unit": "%"}, {"measurement": "viability at 3.33 µM", "setting": "in vitro [1]", "value": 98.8, "unit": "%"}, {"measurement": "viability at 10 µM", "setting": "in vitro [1]", "value": 95.1, "unit": "%"}, {"measurement": "viability at […]", "setting": "in vitro [1]", "value": "102% and 98.9%"}, {"measurement": "EC50", "setting": "[2]", "value": 600, "unit": "nM"}, {"measurement": "replication of TC-83", "setting": "VEEV (TC-83) [3]", "value": "dose-dependently inhibited replication"}, {"measurement": "CC50", "setting": "in vitro [4]", "value": "> 20000", "unit": "nM"}]}
{"smiles": "CC[C@@H](C(=O)[C@@H](C)[C@@H](O)[C@H](C)[C@@H]1O[C@@H]([C@@H](CC)C(=O)O)CC[C@@H]1C)[C@H]1O[C@]2(C=C[C@@H](O)[C@]3(CC[C@@](C)([C@H]4CC[C@](O)(CC)[C@H](C)O4)O3)O2)[C@H](C)C[C@@H]1C", "note": "[salinomycin]", "values": [{"measurement": "Fluorescence (%area)", "setting": "[5]", "value": "greater than 15"}]}
